Test [1] deals with Escherichia coli. In words: Induction of membrane integrity disruption in Escherichia coli at 2 times of MIC by propidium iodide staining based flow cytometry relative to control (reference value: 2.97 %). The test is classed as functional. A general note: Flow cytometry measures light scatter and fluorescence of single cells or particles in a stream.
The test system of test [2] is Staphylococcus aureus. In words: Induction of cytoplasmic membrane depolarization in Staphylococcus aureus at 2 times of MIC within 4 mins by SYTOX green-based assay. Type of test: functional, organism-based.
For test [3], the system named is Enterococcus faecium. In words: Antibacterial activity against vancomycin-resistant Enterococcus faecium ATCC 51559 assessed as reduction in bacterial growth incubated for 18 hrs by spectrophotometry based microtiter broth dilution method. The test is classed as functional. To be noted: ATCC 51559, 18 h.
Test [4] has as its system Staphylococcus aureus. In words: Induction of cytoplasmic membrane depolarization in Staphylococcus aureus at 2 times of MIC for a period of 600 sec by DiSC3-5-fluorescence based assay. Type of test: functional, organism-based.
For test [5], the system named is Staphylococcus aureus. Description: Antibacterial activity against methicillin-resistant Staphylococcus aureus CCARM 3089 assessed as reduction in bacterial growth incubated for 72 hrs by spectrophotometry. The test is classed as functional. To be noted: CCARM 3089, 72 h.
The test system of test [6] is Pseudomonas aeruginosa. Description: Antibacterial activity against multidrug-resistant Pseudomonas aeruginosa CCARM 2095 assessed as reduction in bacterial growth incubated for 72 hrs by spectrophotometry. Type of test: functional. To be noted: CCARM 2095, 72 h.

Structures are written as SMILES. ≈ marks a conversion by molar mass, not a printed value. Calls of active or inactive are those of the source. The calls are words filed in the database; no cut-off is given here.

`CC[C@H](C)[C@H](NC(=O)CN)C(=O)NCC(=O)N[C@@H](C)C(=O)N[C@H](C(=O)N[C@@H](CC(C)C)C(=O)N[C@@H](CCCCN)C(=O)N[C@H](C(=O)N[C@@H](CC(C)C)C(=O)N[C@H](C(=O)N[C@H](C(=O)NCC(=O)N[C@@H](CC(C)C)C(=O)N1CCC[C@H]1C(=O)N[C@@H](C)C(=O)N[C@@H](CC(C)C)C(=O)N[C@H](C(=O)N[C@@H](CO)C(=O)N[C@@H](Cc1c[nH]c2ccccc12)C(=O)N[C@H](C(=O)N[C@@H](CCCCN)C(=O)N[C@@H](CCCNC(=N)N)C(=O)N[C@@H](CCCCN)C(=O)N[C@@H](CCCNC(=N)N)C(=O)N[C@@H](CCC(N)=O)C(=O)N[C@@H](CCC(N)=O)C(N)=O)[C@@H](C)CC)[C@@H](C)CC)[C@@H](C)O)[C@@H](C)O)C(C)C)C(C)C` [MELITTIN] displayed an Activity in test [1] of 75.38%. For the same molecule, the outcome in test [2] and in test [4] was Active. In addition, the MIC (usually the lowest concentration that inhibits growth of the organism) in test [3] is 8 µM (≈ 22.8 µg/mL).

Take `O=C(O)c1cn(C2CC2)c2cc(N3CCNCC3)c(F)cc2c1=O` [CIPROFLOXACIN]: the MIC in test [5] came to 1020 µM (≈ 339 µg/mL); in test [6] it was 512 µM (≈ 170 µg/mL).

Take `O=C(N[C@H](CO)[C@H](O)c1ccc([N+](=O)[O-])cc1)C(Cl)Cl` [CHLORAMPHENICOL]: the MIC in test [5] worked out at 128 µM (≈ 41.4 µg/mL); in test [6], 1020 µM (≈ 331 µg/mL).

On to `Cc1onc(-c2ccccc2)c1C(=O)N[C@@H]1C(=O)N2[C@@H]1SC(C)(C)[C@@H]2C(=O)O` [OXACILLIN], for which the MIC in test [5] and in test [6] was 512 µM (≈ 206 µg/mL) each time.

Values taken from ChEMBL document CHEMBL4406836, “The design of a cell-selective fowlicidin-1-derived peptide with both antimicrobial and anti-inflammatory activities” (Eur J Med Chem, 2019).
